The record followed here is patent US9506068B2, “Pain treatment using ERK2 inhibitors” (Cornell University, priority 2008, dated 2016).

The subject of data set [1] is ERK1. Description: Western blot of spinal cord dorsal horn: ERK1 and pERK1. The data set is classed as in vivo, mouse. Particulars: compared to animals that did not receive intraparenchymal injection of a vector. How it is done: (§1) The viral vectors, ERK2-5, 2-7, 2-8 and MM were micro-injected into the spinal cord dorsal horn (SCDH) as described by South et al. (South et al., 2003). The mice were anesthetized with ketamine/xylazine. A laminectomy was performed to remove part of the dorsal L2 and L3 spinous process and the lumbar area of spinal cord was exposed for intraparenchymal injection (IPI). Three unilateral injections of 1 μl (1-3×10^9 viral particles/μl) were administered 0.5-0.7 mm apart, at a depth of 0.3 mm from the dorsal border and 0.5 mm from the midline, using a glass pipette with a 40-μm-diameter tip attached to a 5 μl Hamilton syringe. […]
(§2) Animals were deeply anesthetized by isoflurane, decapitated and the lumbar spinal cord dorsal horn at the level of L4-L6 were rapidly dissected. […] The protein level of each sample was measured by the BioRad DC assay. […]
(§3) Membranes were incubated with rabbit anti-pERK1/2 antibody (1:1000; 07-362; Cell Signaling Technology, Inc.) in blocking solution overnight at 4° C., washed in TBS with 0.1% Tween-20 (TBST), then incubated with HRP-conjugated anti-rabbit IgG (1:1000, Pierce Biotechnology, Inc., Rockford, Ill.) in blocking solution for 1 hr. […] Ratios of intensity of pERK1/2 or ERK1/2 to β-actin were calculated, normalized to the control samples and subject to statistical analysis. […]

In data set [2] the test system is fusion mRNA of the ERK2 and the humanized Renilla luciferase (hRluc) gene. The data set can be described thus: psiCHECK Dual Luciferase Reporter Assay. In kind it is cell-based, mouse. Particulars: HEK 293 cells cotransfected with psiCHECK plasmid and rAAV plasmid; normalized to 100% of rAAV plasmid lacking shRNA (GFP); n=4. From the text: FIGS. 1A-J illustrate expression of green fluorescent protein (GFP) and the knockdown of ERK2 mRNA in the mouse spinal cord dorsal horn (SCDH) at 3 weeks after the intraparenchymal injection of a neurotropic recombinant adeno-associated virus (rAAV) vector expressing ERK2 siRNA. […] Thus, the expression of GFP was not influenced by co-expression of the ERK2 siRNAs. […] Scale bar, 500 μm. In FIG. 1I, ERK2 mRNA expression was quantified from in situ images and plotted in the bar graph as the ratio of the integrated optical density of in situ labeling in the ipsilateral SCDH to that in the contralateral SCDH. Data are the mean±SEM (n=3). […] There was no significant difference in the ratio among the three active siRNA vectors. […] HEK 293 cells were cotransfected with the psiCHECK plasmid (which contains the ERK2-Renilla luciferase fusion gene and the firefly luciferase gene) and with a rAAV plasmid expressing a candidate ERK2 shRNA sequence. rAAV plasmids that yield active siRNAs reduce the expression of Renilla luciferase relative to firefly luciferase, leading to a reduction of the activity ratio. The assay results are the mean±SEM (n=4). The Renilla/firefly signal was normalized to a value of 100% from the results of a concurrent assay containing psiCHECK and a rAAV plasmid that lacked coding for a shRNA sequence (GFP). […]
(In general: Reporter assays use an easily measured gene product as a stand-in for the process of interest.)

The subject of data set [3] is C57BL/6 mice. The data set can be described thus: Acute thermal paw withdrawal threshold. In kind it is in vivo, mouse. To be noted: before vs. at least 3 weeks after vector administration, no CFA. How it is done: Thermal paw withdrawal threshold was assessed using a thermal nociceptive stimulus apparatus (Hargreaves et al., 1988). Prior to the test, the animals were allowed to acclimate for 30 min to the test chamber on a pre-heated glass plate maintained at 30° C. A radiant thermal stimulus (5.10 amps) was applied to the mid-plantar surface of the hind paw through the glass plate. The latency, in seconds, for the withdrawal of the paw from the heat source was determined automatically. If no response was elicited, the heat source was automatically shut off at 20 sec to prevent tissue injury. A minimum break of 5 min was allowed between each trial. Three to six trials were performed for each paw.

Another data set relates to ERK2 mRNA. The data set can be described thus: Non-radioactive in situ hybridization of ERK2 mRNA in spinal cord dorsal horn after intraparenchymal vector injection. In kind it is in vivo, mouse. Particulars: 3 weeks after intraparenchymal injection; ipsilateral vs contralateral; listed as MM. How it is done:
as §1, with “syringe. The syringe was mounted on a microinjector (David Kopf Instruments, Tujunga, Calif.) attached to a stereotaxic unit (David Kopf Instruments). After the injection, the overlying muscles were closed with 5-0 chromic gut and the skins were closed with wound clips.” for “syringe.”
ERK2 mRNA expression in the SCDH was detected by non-radioactive in situ hybridization as described by (Garraway et al., 2007). […]
(§4) Fluorescent IHC images were captured by a Zeiss LSM 510 laser scanning confocal microscope. […] Quantitative analysis was performed by a blinded observer using Metamorph software (Universal Imaging, Downingtown, Pa.) as described previously (Garraway et al., 2007). […]

The subject of a further data set is ERK2. Description: Western blot of spinal cord dorsal horn: ERK2 and pERK2. In kind it is in vivo, mouse. To be noted: compared to animals that did not receive intraparenchymal injection of a vector. How it is done:
as §1, §2, §3

Data set [4] relates to C57BL/6 mice. Description: Motor function tests (surface righting, placing/stepping, grasping/climbing). In kind it is in vivo, mouse. To be noted: after intraparenchymal injection of vector. As to the method: All behavioral testing was conducted in groups of 10 mice per treatment by a blinded observer. Motor function tests were performed before mechanical stimulus threshold or thermal paw withdrawal threshold were measured (Garraway et al., 2007). No deficits in reflexes for surface righting, placing/stepping and grasping/climbing were found in animals treated with either the control rAAV vector or rAAV viral vectors.

The test system of data set [5] is spinal cord dorsal horn (SCDH). Particulars: mouse, in vivo.
Procedure: Mice were anesthetized with pentobarbital and then perfused transcardially with 4% paraformaldehyde (PFA) in phosphate buffered saline (PBS) with 1 mM NaF. Fifty mL of fixative was perfused over 5 min by using a peristaltic pump. The spinal cord was dissected and placed in 4% PFA for 1 hr before being transferred to 30% sucrose for cryoprotection for 72 hr. Lumbar spinal cord cryosections of 20-μm thick were obtained from a cryostat (Leica, Bannockburn, Ill.) for IHC and in situ hybridization.
For IHC, the spinal cord sections were incubated in blocking solution (3% normal goat serum, 0.1% Triton X-100 in Tris buffered saline) for 30 min. After washing in Tris buffered saline (TBS), sections were incubated with one or two of the following primary antibodies: rabbit anti-GFP (1:1000; Invitrogen-Molecular Probes Inc, Eugene, Oreg.), rabbit anti-phospho-ERK1/2 (1:1000; Cell Signaling Technology, Inc., Danvers, Mass.), mouse anti-NeuN (1:400; Millipore-Chemicon, Bedford, Mass.), rabbit anti-c-fos (1:2000, Santa Cruz Biotechnology, Santa Cruz, Calif.), rabbit anti-Dynorphin A(1:2000, Bachem, San Carlos, Calif.), mouse anti-GFAP (1:2000; Millipore-Chemicon) and rat anti-OX42 (1:1000, BD Biosciences, San Diego, Calif.) overnight in blocking solution at 4° C. […]
For data set [6], the system named is C57BL/6 mice. Description: Acute mechanical stimulus threshold (von Frey). Particulars: before vs. at least 3 weeks after vector administration, no CFA. In kind it is in vivo, mouse. As to the method:
Mechanical stimulus threshold to a non-noxious mechanical stimulus was determined by paw withdrawal to the application of a series of calibrated von Frey filaments to the surface of the hind paws. The animals were placed in a Plexiglas cage with mesh flooring suspended above the researcher and left to acclimate for 30 min. von Frey filaments were applied perpendicularly against the mid-plantar surface of the foot. The “up-down” method of Dixon (Chaplan et al., 1994) was used to determine the value at which paw withdrawal occurred 50% of the time, interpreted as the mechanical threshold.

Data set [7] has as its system spinal cord dorsal horn (SCDH). Description: GFP immunolabeling after rAAV vector injection (extent and cell type of transduction). In kind it is in vivo, mouse. Particulars: confocal fluorescent immunohistochemistry; NeuN, GFAP, OX42 markers. As to the method: The viral vectors, ERK2-5, 2-7, 2-8 and MM were micro-injected into the spinal cord dorsal horn (SCDH) as described by South et al. (South et al., 2003). The mice were anesthetized with ketamine/xylazine. A laminectomy was performed to remove part of the dorsal L2 and L3 spinous process and the lumbar area of spinal cord was exposed for intraparenchymal injection (IPI). Three unilateral injections of 1 μl (1-3×10^9 viral particles/μl) were administered 0.5-0.7 mm apart, at a depth of 0.3 mm from the dorsal border and 0.5 mm from the midline, using a glass pipette with a 40-μm-diameter tip attached to a 5 μl Hamilton syringe. The syringe was mounted on a microinjector (David Kopf Instruments, Tujunga, Calif.) attached to a stereotaxic unit (David Kopf Instruments). After the injection, the overlying muscles were closed with 5-0 chromic gut and the skins were closed with wound clips. Animals were allowed to recover for three weeks before undergoing behavioral tests, or sacrificed for histological and Western blot analysis.
as §4

Data set [8] relates to ERK1. The data set can be described thus: Western blot of transfected HEK293 cells: ERK1. In kind it is cell-based, human. From the text:
Separate cultures of an immortalized cell line of human embryonic kidney cells (HEK293) were transfected with three active siRNAs directed against human ERK2. […] The sequences of the three human ERK2 siRNAs (#1, #2, and #3) and the control mismatch siRNA are shown below. The siRNAs were expressed from the rAAV vector. Thus, to generate the siRNA #1, the DNA sequence of the sense strand […] NO:777) was linked to a spacer derived from an miRNA […] ID NO:766) at the 3' end, which was then linked to the corresponding antisense sequence […] NO:778)). Thus, the non-template strand sequence used in the expression cassette for the […] NO:777) siRNA will have the following sequence (SEQ ID NO:779)): [NT] This sequence was placed downstream of an RNA polymerase III (RNA pol III) promoter in the rAAV vector. The vector also contained 6 consecutive dTs in the non-template strand following the SEQ ID NO:779 sequence to stop the transcription.
A general note: Immunoblotting shows a protein as a band on a membrane.

“Also recorded” adds a separate entry of the source.

Take “mm: inactive control mismatch siRNA CCUCGUCAUAAUACUGGGUUU used in HEK293 cells (chemistry not given here)”: the “expression or phosphorylation of ERK1” value in the data set on ERK1 [1] is “did not have any effect”. Further, the “Renilla/firefly luciferase activity ratio” value in data set [2] was “ineffective”. For the same substance, the heat withdrawal latency entry in the data set with C57BL/6 mice [3] was “No change”. Besides, in the data set on ERK2 mRNA, the “ERK2 mRNA level in the ipsilateral SCDH (in situ hybridization)” value is listed as “did not alter; also recorded: no change”. Besides, the “expression or phosphorylation of ERK2” value in the data set with ERK2 is “did not have any effect”. In addition, in the data set on C57BL/6 mice [4], the “animals with signs of motor deficits” value is listed as “None”. Also, in data set [5], the “gliosis in the spinal cord dorsal horn” value is on record as “no evidence of gliosis” and the neuronal cell loss result is recorded as “no evidence of neuronal cell loss”. In addition, the mechanical withdrawal threshold result in the data set with C57BL/6 mice [6] is listed as “No change”. Also, in data set [7], the “cellular localization of GFP immunolabeling” value was “colocalized with NeuN”.

For “siRNA #1: human ERK2 siRNA (1833-1851) GCAGGAGCUUGUGGAAAUAUU, expressed from the rAAV vector”, the ERK1 expression result with ERK1 [8] is “without significantly changing”.

For the substance “siRNA #2: human ERK2 siRNA (884-902) GCUGCAUUCUGGCAGAAAUUU, expressed from the rAAV vector”, in the data set with ERK1 [8], the ERK1 expression result is reported as “without significantly changing”.

Turning to “siRNA #3: human ERK2 siRNA (357-375) GUGCUCUGCUUAUGAUAAUUU, expressed from the rAAV vector”, in the data set with ERK1 [8], the ERK1 expression result is “without significantly changing”.
